Results as given in PubChem BioAssay AID2060495 (Molecular Pharmacology Branch, DTP, NCI, 2025).
Values joined by “and” are separate entries in the source; they are usually repeats but may differ in a detail not shown here. Identical values can stand only once.

Tested on: 521955-158-R2-J5-PDC complex spheroid viability
Experiment: Anticancer human tumor 521955-158-R2-J5-PDC patient-derived pancreatic carcinoma cell line growth inhibition [GQUAD]
Settings: for viability, T/C: stronger effect = lower value
From the text: DNA G-quadruplex Stabilizer Agents in Combinations in Complex Spheroids
A high-throughput screen of multi-cell type tumor spheroids was designed to identify active combinations of DNA G-quadruplex stabilizer agents and targeted small molecules. Complex spheroids include a stromal component modeled by human endothelial cells (HUVEC) and fibroblasts modeled by human mesenchymal stem cells (MSCs). The concentration ranges selected for each drug and investigational agent were based upon clinically achievable concentrations if the clinical Cmax of the agent was known.
Compounds. The drugs and investigational agents: pidnarulex (CX-5461; NSC782164), APTO-253 (NSC789042), BRACO-19 (NSC847499), peposertib (NSC802822), ceralasertib (NSC780249), elimusertib (NSC800525), camonsertib (NSC841442), AZD-1390 (NSC803789), olaparib (NSC753686), talazoparib (NSC767125), ART-558 (NSC835418), sotorasib (NSC818433), MRTX-1133 (NSC836407), SN-38 (NSC673596), topotecan (NSC609699), etoposide (NSC141540), doxorubicin (NSC123127), gemcitabine (NSC613327), 5-fluorouracil (NSC19893), paclitaxel (NSC125973), vemurafenib (NSC761431), panobinostat (NSC761190), R-306465 (JNJ-16241199; NSC773264), adavosertib (NSC754352), TP-3654 (NSC805149), carboplatin (NSC241240), KSQ-4279 (NSC840948), and staurosporine (NSC755774) were obtained from the National Cancer Institute (NCI) Developmental Therapeutics Program Chemical Repository (34). The FDA-approved anticancer drug set is available from the NCI Developmental Therapeutics Program. […] The stock solutions were prepared in dimethyl sulfoxide (DMSO, Sigma-Aldrich, St. Louis, MO, cat. D2650) at 800-fold the tested concentration and stored at -70 degrees C prior to their use. All drugs and investigational agents were tested over a range starting from a high concentration at or near the clinical Cmax and decreasing in half-log increments. If the clinical Cmax for an agent had not been determined, the highest concentration tested was 10 microM.
2.3 Cell Culture. All cells were maintained in an incubator at 37 degrees C and 5% CO2 with 95% humidity. The PDC lines were cultured according to standard operating procedures established by the NCI PDMR. All PDCs were thawed and cultured in Matrigel-coated flasks prepared with a working solution of 1X Ham's F-12 nutrient mix, without supplementation (Invitrogen, cat. 11765054), 100 U/mL penicillin-streptomycin (Invitrogen, cat. 15140122), and 2.5% Matrigel (Corning Inc., cat. 354248) for the first three passages. The 857933-349-R-J2-PDC line was cultured in 6C/Colon 1B media, which includes advanced DMEM/F-12 (Thermo Fisher Scientific, cat. 12634028), 10 mM HEPES (Thermo Fisher Scientific, cat. 15630080), 1X GlutaMAX supplement (Thermo Fisher Scientific, cat. 35050061), 0.1 mg/mL primocin (InvivoGen, cat. ant-pm-2), 10% defined fetal bovine serum, heat inactivated (HyClone Laboratories Inc., cat. SH30070.03HI), 50% L-WRN conditioned media (ATCC, cat. CRL-3276), 1.25 mM N-Acetyl-L-cysteine (Sigma-Aldrich, cat. A9165), 10 mM nicotinamide (Sigma-Aldrich, cat. N0636), 1X B-27 supplement (Thermo Fisher Scientific, cat. 17504044), 1X N-2 supplement (Thermo Fisher Scientific, cat. 17502048), 10 microM Y-27632 dihydrochloride (Tocris Bioscience, cat. 1254), and 50 ng/mL human EGF recombinant protein (Thermo Fisher Scientific, cat. PHG0311). The 485176-168-R4-J1-PDC line was cultured in Panc media, which includes all 6C/Colon 1B media components plus 100 ng/mL human FGF-10 (Thermo Fisher Scientific, cat. 100-26), 500 nM SB-431542 (Selleckchem, cat. S1067), and gastrin (Tocris, cat. 3006).
[…]
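Note: spheroids exposed to agents for one week before reading.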
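Throughout, for viability, T/C: 100% = DMSO vehicle control viability.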

| IC50 (curve of compound) | IC50 (compound alone, run of 04/22/2024) [µM] | SMILES | viability, T/C (compound 0.0316 µM) | viability, T/C (compound 0.1 µM) | viability, T/C (compound 0.316 µM) | viability, T/C (compound 1 µM) | viability, T/C (compound 3.16 µM) | viability, T/C (compound 10 µM) | viability, T/C (compound 0.000999 µM) | viability, T/C (compound 0.00316 µM) | viability, T/C (compound 0.00999 µM) | viability, T/C (compound 0.0999 µM) |
| --- | --- | --- | --- | --- | --- | --- | --- | --- | --- | --- | --- | --- |
| > 10 µM |  | C=CC(=O)N1CCN(c2nc(=O)n(-c3c(C)ccnc3C(C)C)c3nc(-c4c(O)cccc4F)c(F)cc23)C(C)C1 (stereo not given) | 86.9% and 107% and 102% | 95.5% and 94.6% and 97.9% | 84.9% and 115% and 119% | 110% and 98.3% and 102% | 109% and 115% and 123% | 91% and 91.9% and 80.9% |  |  |  |  |
| 0.0567 µM and 0.0646 µM and 0.0553 µM |  | CC1COCCN1c1cc(-c2ccnn2C)c2ccnc(-c3ccn[nH]3)c2n1 (stereo not given) | 86% and 82.9% and 82.7% | 13.9% and 30.4% and 13.4% | 10.9% and 17.4% and 9.83% | 13.5% and 21.3% and 12.2% | 16.9% and 33.8% and 15.8% | 19.7% and 38.7% and 26.2% |  |  |  |  |
| < 0.0316 µM and 0.0418 µM |  | CC1COCCN1c1cc(C2(O)CC3CCC(C2)O3)c2cnn(-c3ccn[nH]3)c2n1 (stereo not given) | 32.7% and 40.2% and 58% | 11% and 10.8% and 17.1% | 11.7% and 12.3% and 23.7% | 15.8% and 17.1% and 31.5% | 19.6% and 19% and 32.1% | 6.3% and 8.53% and 21.2% |  |  |  |  |
| 0.693 µM and 0.909 µM and 0.705 µM |  | CC1COCCN1c1cc(C2(S(C)(=N)=O)CC2)nc(-c2ccnc3[nH]ccc23)n1 (stereo not given) | 109% and 97.3% and 99.7% | 100% and 91% and 89.6% | 97.3% and 109% and 127% | 28% and 45.5% and 25.8% | 9.05% and 14.9% and 6.37% | 11.1% and 16.7% and 11.6% |  |  |  |  |
| 0.0669 µM and 0.0932 µM and 0.0766 µM |  | CC[C@@]1(O)C(=O)OCc2c1cc1n(c2=O)Cc2cc3c(CN(C)C)c(O)ccc3nc2-1 | 86.6% and 79.7% and 91.3% |  | 8.07% and 27.5% and 13.2% |  |  |  | 109% and 110% and 79.9% | 84.8% and 101% and 96.6% | 96.3% and 112% and 92.2% | 30.5% and 50.2% and 38% |

The next lines start with the compound.

| SMILES | IC50 (curve of compound) | IC50 (compound alone, run of 04/22/2024) [µM] | viability, T/C (compound 0.0316 µM) | viability, T/C (compound 0.1 µM) | viability, T/C (compound 0.316 µM) | viability, T/C (compound 1 µM) | viability, T/C (compound 3.16 µM) | viability, T/C (compound 10 µM) | viability, T/C (compound 0.000999 µM) | viability, T/C (compound 0.00316 µM) | viability, T/C (compound 0.00999 µM) | viability, T/C (compound 0.0999 µM) |
| --- | --- | --- | --- | --- | --- | --- | --- | --- | --- | --- | --- | --- |
| C#Cc1c(F)ccc2cc(O)cc(-c3ncc4c(N5CC6CCC(C5)N6)nc(OCC56CCCN5CC(F)C6)nc4c3F)c12 (stereo not given) |  |  | 40.9% and 72.8% and 65.6% | 32.6% and 85% and 56.9% | 31.2% and 57.2% and 57.9% | 24.3% and 54.7% and 39.5% | 27.9% and 53.1% and 48.7% | 17.8% and 37.3% and 35.5% |  |  |  |  |
| C=CCn1c(=O)c2cnc(Nc3ccc(N4CCN(C)CC4)cc3)nc2n1-c1cccc(C(C)(C)O)n1 | 0.181 µM and 0.167 µM and 0.145 µM |  | 101% and 115% and 102% | 70.8% and 67% and 66.1% | 30.4% and 29.3% and 16% | 17.9% and 15.7% and 7.78% | 12.2% and 13.9% and 7.48% | 16.8% and 14.4% and 6.61% |  |  |  |  |
| CC(=O)O[C@H]1C(=O)[C@@]2(C)[C@H]([C@H](OC(=O)c3ccccc3)[C@]3(O)C[C@H](OC(=O)[C@H](O)[C@@H](NC(=O)c4ccccc4)c4ccccc4)C(C)=C1C3(C)C)[C@]1(OC(C)=O)CO[C@@H]1C[C@@H]2O | 0.0509 µM and < 0.0316 µM |  | 55.7% and 44.9% and 22.1% | 41.9% and 46.4% and 14.2% | 27.7% and 32.3% and 8.41% | 33.1% and 30.1% and 9.52% | 22.9% and 28.9% and 11.5% | 29.9% and 31.3% and 16% |  |  |  |  |
| CC(C)(O)C1CCC(Nc2ccc3ncc(-c4cccc(C(F)(F)F)c4)n3n2)CC1 (stereo not given) | 2.1 µM and 2.09 µM and 1.92 µM |  | 120% and 105% and 102% | 109% and 101% and 81.3% | 107% and 114% and 115% | 110% and 112% and 125% | 15.4% and 16.3% and 6.66% | 18.2% and 18% and 8.13% |  |  |  |  |
| CC(C)n1c(=O)n(C)c2cnc3cc(F)c(-c4ccc(OCCCN5CCCCC5)nc4)cc3c21 | > 10 µM |  | 115% (2×) and 100% | 96.9% and 107% and 94.7% | 114% (2×) and 80.2% | 91.4% and 95.4% and 89.3% | 96.3% and 107% and 96.1% | 95.6% and 95.5% and 84.2% |  |  |  |  |
| CCCS(=O)(=O)Nc1ccc(F)c(C(=O)c2c[nH]c3ncc(-c4ccc(Cl)cc4)cc23)c1F | > 10 µM |  | 112% and 121% and 109% | 83.8% and 96.3% and 95% | 73.2% and 96.7% and 148% | 102% and 108% and 152% | 217% and 247% and 153% | 92.2% and 112% and 62.1% |  |  |  |  |
| CCc1c2c(nc3ccc(O)cc13)-c1cc3c(c(=O)n1C2)COC(=O)[C@]3(O)CC | 0.00151 µM and 0.00259 µM and 0.00171 µM |  | 6.38% and 17.9% and 8.13% |  | 3% and 10.7% and 2.39% |  |  |  | 71% and 85.3% and 74.8% | 12.1% and 39.8% and 21.3% | 7.66% and 28.1% and 9.19% | 5.13% and 11.7% and 5.42% |
| CN(C)c1ccc(Nc2c3ccc(NC(=O)CCN4CCCC4)cc3nc3cc(NC(=O)CCN4CCCC4)ccc23)cc1 |  | > 10 | 107% [middle of 12 runs] | 103% [middle of 12 runs] | 98% [middle of 12 runs] | 89.4% [middle of 12 runs] | 82.5% [middle of 12 runs] | 72.5% [middle of 12 runs] |  |  |  |  |
